Reference: US20240342117A1, “Inhalable Epinephrine Formulation” (De Motu Cordis Pty Ltd, priority 2022, published 2024)

Conditions: over 4 weeks of storage

tendency to agglomerate: naturally tends to agglomerate
Compound: CNC[C@H](O)c1ccc(O)c(O)c1 [micronized epinephrine bitartrate, epinephrine bitartrate]
